Common to all, as to type: cell-based
The test system of test [1] is KOPN-8. Nature of the test: MTT assay, cell number relative to vehicle. The settings on record: Homo sapiens, KOPN-8 (MLL-ENL), Biphenotypic Leukemia with Lymphoblastic Features, 48 hours. A general note: Formazan colour is commonly taken as a measure of viable cells.
Test [2] has as its system mixed lineage leukemia cell lines. The experiment in a line: Apoptotic and dead cells by flow cytometry (YO-PRO-1 / propidium iodide). The conditions noted are these: 48 hours; FIG. 2. How it is done: Apoptotic and dead cells were identified by flow cytometric analysis of cells stained with propidium iodide and YO-PRO®-1. Cells undergoing apoptosis are stained with YO-PRO®-1, but are impermeable to propidium iodide. Dead cells and cells in late apoptosis are permeable to both dyes. Viable cells are not stained by either dye. Mean (+/−SEM) percentages of apoptotic and dead cells were derived from 3-7 independent experiments.
(§1) Alternatively, an ALL cell line (REH) was treated with Trichostatin A (TSA), sodium phenyl butyrate (SPB), or vehicle only for 48 hours. MTT or BrdU were added for 4 hours. The relative number of viable cells, as indicated by MTT reduction, was determined (FIG. 1A and Table 1). The relative number of proliferating cells, as indicated by BrdU-incorporation, was measured using an ELISA assay (FIG. 1B). IC50 values were calculated using non-linear regression (Table 1). The percentages of apoptotic and dead cells were determined by flow cytometric analysis of cells stained with YO-PRO®-1 and propidium iodide (FIGS. 2 and 5A). DNA content was determined by flow cytometric analysis of propidium iodide stained cells. The fractions of cells with G1, S, and G2/M phase DNA contents were determined (FIGS. 3 and 5B).

Test [3] relates to UOCB1. The experiment in a line: MTT assay, cell number relative to vehicle. The conditions noted are these: Homo sapiens, UoC-B1, UOCB1 (E2A-HLF), B Cell Lymphoblastic Leukemia, 48 hours.
In test [4] the test system is Molt-4. Nature of the test: MTT assay, cell number relative to vehicle. The settings on record: Homo sapiens, Molt-4, T Cell Lymphoblastic Leukemia, 48 hours.
Test [5] relates to HSB-2. The experiment in a line: MTT assay, cell number relative to vehicle. The conditions noted are these: HSB2, HSB-2 (LCK-TCRβ), T Cell Lymphoblastic Leukemia, 48 hours.
Test [6] concerns RS4; 11. Nature of the test: MTT assay, cell number relative to vehicle. The settings on record: Homo sapiens, 11 (MLL-AF4), Biphenotypic Leukemia with Lymphoblastic Features, 48 hours.
Test [7] has as its system MV4-11. Nature of the test: MTT assay, cell number relative to vehicle. The settings on record: Homo sapiens, MV4-11 (MLL-AF4), Biphenotypic Leukemia with Myeloid Features, 48 hours.
In test [8] the test system is Nalm-6. The experiment in a line: MTT assay, cell number relative to vehicle. The settings on record: Homo sapiens, Nalm-6 (PDGFRβ-TEL), B Cell Lymphoblastic Leukemia, 48 hours.
For test [9], the system named is Jurkat. Nature of the test: MTT assay, cell number relative to vehicle. The settings on record: Homo sapiens, T Cell Lymphoblastic Leukemia, 48 hours.
For test [10], the system named is Molm-14. Nature of the test: MTT assay, cell number relative to vehicle. The conditions noted are these: Homo sapiens, Molm-14 (MLL-AF9), Biphenotypic Leukemia with Myeloid Features, 48 hours.
Test [11] concerns SEM cells. Nature of the test: MTT assay, cell number relative to vehicle. The conditions noted are these: SEM (MLL-AF4), Biphenotypic Leukemia with Lymphoblastic Features, 48 hours.
Test [12] deals with KG1. Nature of the test: MTT assay, cell number relative to vehicle. The conditions noted are these: Homo sapiens, KG-1, KG1, Myeloid Leukemia, 48 hours.
Test [13] has as its system Molm-13. Nature of the test: MTT assay, cell number relative to vehicle. The settings on record: Homo sapiens, Molm-13 (MLL-AF9), Biphenotypic Leukemia with Myeloid Features, 48 hours.
Test [14] deals with U937. The experiment in a line: MTT assay, cell number relative to vehicle. The settings on record: Homo sapiens, U-937, U937, Myeloid Leukemia, 48 hours.
Test [15] concerns CEM. The experiment in a line: MTT assay, cell number relative to vehicle. The settings on record: Homo sapiens, CCRF-CEM, T Cell Lymphoblastic Leukemia, 48 hours.
Test [16] concerns HEL. The experiment in a line: MTT assay, cell number relative to vehicle. The settings on record: Homo sapiens, Myeloid Leukemia, 48 hours.
Test [17] has as its system RCH-AcV. The experiment in a line: MTT assay, cell number relative to vehicle. The conditions noted are these: RCH-AcV (E2A-PBX1), B Cell Lymphoblastic Leukemia, 48 hours.
The test system of test [18] is Molt-3. Nature of the test: MTT assay, cell number relative to vehicle. The settings on record: Homo sapiens, Molt-3, T Cell Lymphoblastic Leukemia, 48 hours.
Test [19] concerns REH. The experiment in a line: MTT assay, cell number relative to vehicle. The conditions noted are these: Homo sapiens, REH (TEL-AML1), B Cell Lymphoblastic Leukemia, 48 hours. The protocol: as §1
Test [20] concerns HL-60. The experiment in a line: MTT assay, cell number relative to vehicle. The conditions noted are these: Homo sapiens, HL-60, Myeloid Leukemia, 48 hours.
Test [21] relates to HAL-01. Nature of the test: MTT assay, cell number relative to vehicle. The conditions noted are these: Homo sapiens, HAL-01 (TCF3/E2A-HLF), B Cell Lymphoblastic Leukemia, 48 hours.
In test [22] the test system is EOL-1. The experiment in a line: MTT assay, cell number relative to vehicle. The settings on record: Homo sapiens, EOL1, EOL-1 (FIP1L1-PDGFRα), Myeloid Leukemia, 48 hours.
In test [23] the test system is NOMO-1. The experiment in a line: MTT assay, cell number relative to vehicle. The settings on record: Homo sapiens, NOMO-1 (MLL-AF9), Biphenotypic Leukemia with Myeloid Features, 48 hours.
The subject of test [24] is THP-1. The experiment in a line: MTT assay, cell number relative to vehicle. The conditions noted are these: Homo sapiens, THP-1 (MLL-AF9), Biphenotypic Leukemia with Myeloid Features, 48 hours.

2 compounds from US20110053991A1, “Treatment of Histone Deacetylase Mediated Disorders” (priority 2007, published 2011) can be followed below.

pIC50: −log10 of the molar value.

On to `Nc1ccccc1NC(=O)c1ccc(CNC(=O)OCc2cccnc2)cc1` [entinostat, N-(2-aminophenyl)-4-(N-(pyridin-3-ylmethoxycarbonyl)aminomethyl)benzamide], for which the pIC50 in test [1] was 6.40; in [3] it was 6.16; in [4], 6.14; in test [5] it was 5.89; in [6] it was 5.62; in test [7], 6.44. The pIC50 was 6.10 in [8]; 5.89 in test [9]; 6.08 in test [10]; 6.60 in test [11]; 5.81 in test [12]; 6.12 in test [13]. The negative-log IC50 (pIC50) in test [14] was 6.00; in test [15] it was 5.89; in [16], 6.02; in test [17] it was 6.14; in [18], 6.06; in test [19], 5.82. The pIC50 in test [20] was 6.16; in test [21], 6.30; in test [22] it was 6.92; in test [23], 6.23; in [24], 5.35. Also, the “induction of cell death (apoptotic and dead cells)” value in [2] was “dose-dependent cell death”.

In the case of `O=C(CCCCCCC(=O)Nc1ccccc1)NO` [vorinostat, N′-hydroxy-N-phenyl-octanediamide], in [2], the “induction of cell death (apoptotic and dead cells)” value is “dose-dependent cell death”. Besides, the pIC50 in [9] is 6.09.

A word on the pIC50: it is −log10 of the IC50, conventionally taken in molar units.
